In patent publication US6730677B2, “Benzofurazan compounds which enhance AMPA receptor activity” (The Regents of the University of California, priority 1997, dated 2004):

Columns and labels:
[1] = tested on: methamphetamine-induced hyperactivity and/or stereotypic activity; assay: Methamphetamine/rat model of schizophrenia (hyperactivity and/or stereotypic activity); format: in vivo, Sprague-Dawley rats; details: for MEDS: Minimum Effective Dose that produces a statistically significant improvement in behavior in the animal model of schizophrenia: rats, 2 mg/kg methamphetamine, activity monitored for 90 minutes
Procedure: The dose recorded is that which reduced the hyperactivity and/or the stereotypic activity induced by acute administration of 2 mg/kg methamphetamine in rats, as described in Example 22.
The dose recorded is that which reduced the hyperactivity and/or the stereotypic activity induced by acute administration of 2 mg/kg methamphetamine in Sprague-Dawley rats aged 2-4 months. Activity was monitored for 90 minutes using two rows of multiple, paired infrared diode-detectors such that the lower row detected locomotion and the upper row detected rearing behavior. Data were collected by and stored in a personal computer for later analysis.

[2] = Eight-arm radial maze task for cognition/memory enhancement; format: in vivo
Text: This task has been described previously (Staubli et al., PNAS 91:777-781 (1994)) and Lynch and Rogers, PCT Pubn. No. WO 94/02475).

[3] = tested on: AMPA receptors; assay: Field EPSP amplitude in field CA1 of rat hippocampal slice (in vitro physiological testing); format: cell-based; details: estimated by interpolation or extrapolation
Text: The field EPSP (excitory post-synaptic potential) recorded in field CA1 after stimulation of CA3 axons is known to be mediated by AMPA receptors, which are present in the synapses (Kessler et al., Brain Res. 560: 337-341 (1991)). Drugs that selectively block the receptor selectively block the field EPSP (Muller et al., Science, supra). […] These effects are mirrored in the field EPSP (see, for example, Staubli et al., Psychobiology, supra; Xiao et al., Hippocampus, supra; Staubli et al., Hippocampus 2:4958 (1992)).
To obtain the data shown in Table I, a bipolar nichrome stimulating electrode was positioned in the dendritic layer (stratum radiatum) of the hippocampal subfield CA1 close to the border of subfield CA3, as described in Example 21. Current pulses (0.1 msec) through the stimulating electrode activate a population of the Schaffer-commissural (SC) fibers, which arise from neurons in the subdivision CA3 and terminate in synapses on the dendrites of CA1 neurons. Activation of these synapses causes them to release the transmitter glutamate. Glutamate binds to the post-synaptic AMPA receptors which then transiently open an associated ion channel and permit a sodium current to enter the post-synaptic cell. This current results in a voltage in the extracellular space (the field EPSP), which is recorded by a high impedance recording electrode positioned in the middle of the stratum radiatum of CA1.
The intensity of the stimulation current was adjusted to produce half-maximal EPSPs (typically about 1.5-2.0 mV). Paired stimulation pulses were given every 40 sec with an interpulse interval of 200 msec, as described further in Example 21.
(§1) Hippocampal slices were maintained in a recording chamber continuously perfused with artificial cerebrospinal fluid (ACSF). During 15-30 minute intervals, the perfusion medium was switched to one containing various concentrations of the test compounds. Responses collected immediately before and at the end of drug perfusion were superimposed in order to calculate the percent increase in EPSP amplitude.
Invention compounds 1-9, as shown in FIG. 3 and Table I below, and reference compound CX516 (1-(quinoxalin-6-ylcarbonyl)piperidine), disclosed in PCT Pubn. No. WO 94/02475, were assayed in the physiological test system described above.
as §1, with “The physiological effects of invention compounds were tested in vitro with” for “Hippocampal”, “slices of rat hippocampus according to the following procedure. Excitatory responses (field EPSPs) were measured in hippocampal slices, which” for “slices”, “During a” for “During”, “interval,” for “intervals,”
To conduct these tests, the hippocampus was removed from anesthetized, 2 month old Sprague-Dawley rats and in vitro slices (400 micrometers thick) were prepared and maintained in an interface chamber at 35° C. using conventional techniques [see, for example, Dunwiddie and Lynch, J. Physiol. 276: 353-367 (1978)]. The chamber was constantly perfused at 0.5 mL/min with ACSF containing (in mM): NaCl 124, KCl 3, KH2PO4 1.25, MgSO42.5, CaCl2 3.4, NaHCO3 26, glucose 10 and L-ascorbate 2. A bipolar nichrome stimulating electrode was positioned in the dendritic layer (stratum radiatum) of the hippocampal subfield CA1 close to the border of subfield CA3.
Current pulses (0.1 msec) through the stimulating electrode activate a population of the Schaffer-commissural (SC) fibers which arise from neurons in the subdivision CA3 and terminate in synapses on the dendrites of CA1 neurons. Activation of these synapses causes them to release the transmitter glutamate. […]

[4] = Animal model of depression (Malatynska and Kostowski); format: in vivo; details: for MEDD: Minimum Effective Dose that produces a statistically significant improvement in behavior in an animal model of depression: in vivo; for Potency relative to the reference compound in the animal model of depression: compared with CX516
Text: J. Pharmacol. 40, 357-364 (1984).

| Structure (SMILES) | MEDC: Minimum Effective Dose that produces a statistically significant improvement in behavior in the eight-arm radial maze task [2] [mg/kg] | Amp: concentration of compound that causes a 10% increase in the amplitude of the field EPSP in Field CA1 of rat hippocampal slice [3] [µM] | melting point [°C] | also measured |
| --- | --- | --- | --- | --- |
| O=C(c1ccc2nccnc2c1)N1CCCCC1 [CX516, 1-(quinoxalin-6-ylcarbonyl)piperidine, reference compound] | 15 | 50 | – | MEDS: Minimum Effective Dose that produces a statistically significant improvement in behavior in the animal model of schizophrenia [1]: 10 mg/kg; MEDD: Minimum Effective Dose that produces a statistically significant improvement in behavior in an animal model of depression [4]: 5 mg/kg |
| O=C(c1ccc2nsnc2c1)N1CCCCC1 [Compound 1, 1-(Benzo-2,1,3-thiadiazole-5-ylcarbonyl)piperidine] | – | <100 | – | – |
| O=C(c1ccc2nonc2c1)N1CCCCC1 [Compound 2, 1-(Benzofurazan-5-ylcarbonyl)piperidine] | 0.1 | 3 | 88.5 to 90.5 | Reduction in dose giving an equivalent effect relative to reference compound CX516 ([1]; methamphetamine/rat model): hundred-fold; MEDS: Minimum Effective Dose that produces a statistically significant improvement in behavior in the animal model of schizophrenia [1]: 0.1 mg/kg; Potency relative to the reference compound in the animal model of depression [4]: approximately 500 fold; MEDD: Minimum Effective Dose that produces a statistically significant improvement in behavior in an animal model of depression [4]: 0.01 mg/kg |
| O=C(c1ccc2nonc2c1)N1CC=CCC1 [Compound 3, 1-(Benzofurazan-5-ylcarbonyl)-1,2,3,6-tetrahydropyridine] | – | 100 | – | – |
| O=C(c1ccc2nonc2c1)N1CCC(F)CC1 [Compound 4, 1-(Benzofurazan-5-ylcarbonyl)-4-fluoropiperidine] | – | 30 | – | MEDS: Minimum Effective Dose that produces a statistically significant improvement in behavior in the animal model of schizophrenia [1]: 1 mg/kg |
| O=C(c1ccc2nonc2c1)N1CCC(F)(F)CC1 [Compound 5, 1-(Benzofurazan-5-ylcarbonyl)-4,4-difluoropiperidine] | – | 50 | – | MEDS: Minimum Effective Dose that produces a statistically significant improvement in behavior in the animal model of schizophrenia [1]: 1 mg/kg |
| O=C(c1ccc2nonc2c1)N1CC=C(F)CC1 [Compound 6, 1-(Benzofurazan-5-ylcarbonyl)-1,2,3,6-tetrahydro-4-fluoropyridine] | – | 30 | – | – |
| O=C(c1ccc2nonc2c1)N1CCOCC1 [Compound 7, 4-(Benzofurazan-5-ylcarbonyl)morpholine] | 0.1 | 3 | – | – |
| N#CC1CCN(C(=O)c2ccc3nonc3c2)CC1 [Compound 8, 1-(Benzofurazan-5-ylcarbonyl)-4-cyanopiperidine] | 0.1 | 1 | 104 to 107 | – |
| O=C(c1ccc2nonc2c1)N1CCC(O)CC1 [Compound 9, 1-(Benzofurazan-5-ylcarbonyl)-4-hydroxypiperidine] | 0.1 | 20 | 132 to 136 | Potency relative to the reference compound in the animal model of depression [4]: approximately 500 fold; MEDD: Minimum Effective Dose that produces a statistically significant improvement in behavior in an animal model of depression [4]: 0.01 mg/kg |
| O=C(c1ccc2nonc2c1)[SH]1CCNCC1 [Compound 10, 1-(Benzofurazan-5-ylcarbonyl)thiomorpholine] | – | – | 144 to 146 | – |
| O=C(c1ccc2nonc2c1)N1CCCC1 [Compound 11, 1-(Benzofurazan-5-ylcarbonyl)pyrrolidine] | – | – | 97.8 to 99.3 | – |
| O=C(c1ccc2nonc2c1)N1CC=CC1 [Compound 12, 1-(Benzofurazan-5-ylcarbonyl)-3-pyrroline] | – | – | 117 to 118 | – |
| CC1CCN(C(=O)c2ccc3nonc3c2)CC1 [Compound 13, 1-(Benzofurazan-5-ylcarbonyl)-4-methylpiperidine] | – | – | 86 to 87 | – |
| O=C(c1ccc2nonc2c1)N1CCCCCC1 [Compound 14, 1-(Benzofurazan-5-ylcarbonyl)hexamethyleneimine] | – | – | 86 to 87 | – |
